The text below walks through data of patent US20240307561A1, “RA[…] INHIBITOR CONJUGATES FOR CANCER TREATMENT” (DUKE UNIVERSITY, priority 2021, published 2024).

One assay deals with PARP-1 (Homo sapiens, UniProt P09874). The settings on record: release of PARP-1 from DNA; cited from earlier work.
The test system of assay [1] is PSMA^+ PIP cells. In words: PSMA-specific uptake and internalization in PIP cells. Format: cell-based. The settings on record: for Total cell-associated activity (percentage of input dose): 37° C., 5×10^5 PIP cells. On the procedure: PSMA-specific uptake and internalization of [^131I]PARP-PSMA combo agent 13 was determined by incubation with 5×10^5 PIP cells in triplicate in the absence or presence of 200 μM 2-PMPA at 37° C. for 0.25-2 h. After removing the unbound activity-containing medium, the cells were washed with 50 mM glycine, pH 2.8 and finally, cells were lysed with 1M NaOH. Radioactivity in the supernatants, glycine wash (membrane-bound) and lysate (internalized) fractions was counted and percentage of input dose calculated. […] Total cell-associated activity was 18.7±1.0%, 30.0±0.9%, 31.8±1.0 and 37.9±0.6% at 15, 30, 60, and 120 min, respectively.

Assay [2] relates to PSMA^+ PIP cells. In words: Subcellular fractionation in PSMA+ PIP cells. The assay is classed as cell-based. As to conditions: 1 h. On the procedure: Subcellular fractionation of [^131I]PARP-PSMA combo agent 13 in PSMA+ PIP cells was determined using The Subcellular Protein Fractionation Kit for Cultured Cells (Number 78840) purchased from Thermo Scientific. PIP Cells (5 million) were incubated with […] of [^131I] 13 in 1.5 ml tubes with a final incubation volume of 500 μL. Stepwise separation and preparation of cytoplasmic, membrane, nuclear soluble, chromatin-bound and cytoskeletal protein extracts from PSMA^+ PIP cells were achieved by following the protocol provided by Thermo Scientific. The following groups of experiments were performed: • 1. ([^131I]PARP-PSMA combo agent 13. • 2. ([^131I]PARP-PSMA combo agent 13+2-PMPA blocking agent (680 μM) • 3. ([^131I]PARP-PSMA combo agent 13+Olaparib blocking agent (6.8 mM) • 4. ([^131I]PARP-PSMA combo agent 13+2-PMPA blocking agent (6.8 mM)+Olaparib blocking agent (6.8 mM)

Another assay concerns PIP cells. As to conditions: cited from earlier work.
[3] abbreviates: + 2-PMPA (6.8 mM) + Olaparib (6.8 mM) blocking agents.
The mark [4] stands for this setting: + 2-PMPA blocking agent (680 μM).
Where [5] appears, read: + Olaparib blocking agent (6.8 mM).

Read-outs that look alike come from different tables or passages of the source.

PARP-1, sequence (P09874 whole entry): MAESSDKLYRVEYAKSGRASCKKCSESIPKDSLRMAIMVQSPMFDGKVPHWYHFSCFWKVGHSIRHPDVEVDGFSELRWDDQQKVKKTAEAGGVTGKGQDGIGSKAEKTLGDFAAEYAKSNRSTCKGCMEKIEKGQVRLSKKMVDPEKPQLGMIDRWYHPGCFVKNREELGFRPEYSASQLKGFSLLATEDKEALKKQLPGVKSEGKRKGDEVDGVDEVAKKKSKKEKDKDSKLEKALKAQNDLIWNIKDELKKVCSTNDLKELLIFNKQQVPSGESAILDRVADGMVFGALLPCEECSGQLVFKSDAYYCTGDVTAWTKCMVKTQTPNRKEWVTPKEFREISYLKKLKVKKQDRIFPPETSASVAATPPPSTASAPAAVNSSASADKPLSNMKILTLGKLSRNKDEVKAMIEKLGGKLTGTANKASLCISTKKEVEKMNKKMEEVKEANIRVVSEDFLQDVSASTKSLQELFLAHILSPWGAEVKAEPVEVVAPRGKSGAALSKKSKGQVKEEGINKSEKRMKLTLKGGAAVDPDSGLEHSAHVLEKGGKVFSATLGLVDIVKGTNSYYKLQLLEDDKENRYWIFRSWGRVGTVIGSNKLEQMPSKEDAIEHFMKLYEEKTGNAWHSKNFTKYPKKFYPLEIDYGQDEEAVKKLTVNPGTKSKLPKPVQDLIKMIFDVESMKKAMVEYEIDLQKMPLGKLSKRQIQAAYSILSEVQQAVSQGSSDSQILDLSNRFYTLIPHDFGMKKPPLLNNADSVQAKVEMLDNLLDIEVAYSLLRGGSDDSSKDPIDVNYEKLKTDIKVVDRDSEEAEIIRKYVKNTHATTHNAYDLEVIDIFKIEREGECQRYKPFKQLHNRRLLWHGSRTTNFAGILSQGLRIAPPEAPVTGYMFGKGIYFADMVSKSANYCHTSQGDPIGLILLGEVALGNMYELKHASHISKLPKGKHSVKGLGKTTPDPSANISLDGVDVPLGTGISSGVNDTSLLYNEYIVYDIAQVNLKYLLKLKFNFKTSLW

With `COC(=O)c1cnc(N2CCN(C(=O)c3ccc(-c4nc5c(C(N)=O)cccc5[nH]4)cc3)CC2)nc1` [UKTT15], the “dissociation rate constant (kd)” value on PARP-1 was 0.00185 s⁻¹.
As to `O=C(O)CC[C@H](NC(=O)N[C@@H](CCCCNC(=O)CCOCCOCCOCCNC(=O)c1cc([131I])cc(C(=O)N2CCN(C(=O)c3cc(Cc4n[nH]c(=O)c5ccccc45)ccc3F)CC2)c1)C(=O)O)C(=O)O` [[^131I]PARP-PSMA combo agent 13, (20S,24S)-1-(3-(4-(2-fluoro-5-((4-oxo-3,4-dihydrophthalazin-1-yl)methyl)benzoyl)piperazine-1-carbonyl)-5-[^131I]iodophenyl)-1,14,22-trioxo-5,8,11-trioxa-2,15,21,23-tetraazahexacosane-20,24,26-tricarboxylic Acid], the “Total cell-associated activity (percentage of input dose)” value in the assay with PSMA^+ PIP cells [1] (15 min) is on record as 18.7±1.0%. Further, the “Total cell-associated activity (percentage of input dose)” value in the assay on PSMA^+ PIP cells [1] (30 min) was determined as 30.0±0.9%. Besides, the “Total cell-associated activity (percentage of input dose)” value with PSMA^+ PIP cells [1] (60 min) amounted to 31.8±1.0%. The “Total cell-associated activity (percentage of input dose)” value with PSMA^+ PIP cells [1] (120 min) is 37.9±0.6%. For the same molecule, the “Uptake blocked by 2-PMPA” value with PSMA^+ PIP cells [1] (presence of 200 μM 2-PMPA) is recorded as over 80%. In the assay with PSMA^+ PIP cells [2] (setting [3]), the “Cells Left Over” value is 0.02%, the Cytoplasmic came out at 2.13%, the “Cytoskeletal Protein” value is reported as 0.02% and the Membrane is given as 1.44%. In addition, in the assay with PSMA^+ PIP cells [2] (setting [3]), the “Micrococcal Nuclease” value turned out to be 0.03%, the “Nuclear Soluble” value is 0.14%, the “Supernatant (Wash Out)” value was 87.21% and the “Total Cellular Uptake” value amounted to 3.78%. Further, in the assay on PSMA^+ PIP cells [2] (setting [4]), the “Cells Left Over” value came out at 0.06%, the Cytoplasmic is on record as 1.47%, the “Cytoskeletal Protein” value was 0.03% and the Membrane was found to be 3.23%. Also, in the assay with PSMA^+ PIP cells [2] (setting [4]), the “Micrococcal Nuclease” value worked out at 0.09%, the “Nuclear Soluble” value was 0.11%, the “Supernatant (Wash Out)” value is recorded as 86.85% and the “Total Cellular Uptake” value is reported as 4.99%. Moreover, in the assay on PSMA^+ PIP cells [2] (setting [5]), the “Cells Left Over” value is reported as 0.07%, the Cytoplasmic worked out at 3.09%, the “Cytoskeletal Protein” value came to 0.15% and the Membrane is given as 9.00%. Also, in the assay with PSMA^+ PIP cells [2] (setting [5]), the “Micrococcal Nuclease” value is 0.14%, the “Nuclear Soluble” value came to 1.01%, the “Supernatant (Wash Out)” value stood at 82.42% and the “Total Cellular Uptake” value came out at 13.44%. In the assay with PSMA^+ PIP cells [2] (no blocking agent), the “Cells Left Over” value is 0.45%, the Cytoplasmic came to 2.50%, the “Cytoskeletal Protein” value came out at 0.28% and the Membrane is listed as 20.70%. In addition, in the assay on PSMA^+ PIP cells [2] (no blocking agent), the “Micrococcal Nuclease” value was found to be 0.59%, the “Nuclear Soluble” value is listed as 2.17%, the “Supernatant (Wash Out)” value came out at 73.31% and the “Total Cellular Uptake” value stood at 26.69%.
In the case of `O=C(O)CC[C@H](NC(=O)N[C@@H](CCCCNC(=O)c1ccc([131I])cc1)C(=O)O)C(=O)O` [[^131I]DCIBzL], the figures for the Total cell-associated activity in the assay with PIP cells (30 min), in the assay on PIP cells (60 min) and with PIP cells (120 min) were 5.0±0.3%, 9.3±1.5% and 16.8±1.0%, respectively.
Regarding `C[C@]1(c2nc3c(C(N)=O)cccc3[nH]2)CCCN1` [veliparib], at PARP-1, the “dissociation rate constant (kd)” value is 0.00408 s⁻¹.
